Measured values as given in paper PMC10392906 (Advances and Applications in Bioinformatics and Chemistry : …, 2023).

Molecular target: T1, pancreatic porcine α-amylase (Sus scrofa, UniProt P00690)
T1 sequence (P00690 16-511): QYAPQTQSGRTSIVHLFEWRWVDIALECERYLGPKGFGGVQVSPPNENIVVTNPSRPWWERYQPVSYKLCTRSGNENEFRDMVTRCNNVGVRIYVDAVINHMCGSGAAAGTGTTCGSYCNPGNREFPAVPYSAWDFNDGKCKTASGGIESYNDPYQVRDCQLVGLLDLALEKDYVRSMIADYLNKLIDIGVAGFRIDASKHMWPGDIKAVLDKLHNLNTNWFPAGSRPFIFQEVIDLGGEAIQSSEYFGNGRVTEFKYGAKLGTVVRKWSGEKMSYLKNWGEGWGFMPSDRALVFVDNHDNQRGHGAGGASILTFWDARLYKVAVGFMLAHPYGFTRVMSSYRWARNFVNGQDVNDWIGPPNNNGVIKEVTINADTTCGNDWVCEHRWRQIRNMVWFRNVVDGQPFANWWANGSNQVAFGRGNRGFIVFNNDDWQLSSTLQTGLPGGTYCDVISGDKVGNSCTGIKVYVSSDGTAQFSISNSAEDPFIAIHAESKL
Experiment: α-Amylase inhibitory assay
Type: biochemical
Conditions: for inhibition at 10 µg/mL: read-out: % of Inhibition of α-amylase (Mean ± S.D.), 10 µg/mL

With “4-(-2-(3-(4-(Dimethylamino)phenyl)-4,5-Dihydro-1H-Pyrazol-5-yl)vinyl)-2-Methoxyphenol [Compound 8]” the “% of Inhibition of α-amylase (Mean ± S.D.)” value (10 µg/mL) was 85.32±0.36%.

COc1cc(C=Cc2cc(-c3ccccc3)nc(O)n2)ccc1O [Compound 11, 4-(4-Hydroxy-3-Methoxystyryl)-6-Phenylpyrimidin-2-ol] gave an inhibition at 10 µg/mL of 85.17 ± 0.55%.

For COc1cc(C=CC(=O)CC(c2ccc(N(C)C)cc2)n2ccnc2)ccc1O (stereo not shown) [Compound 16, 5-(4-(Dimethylamino)phenyl)-1-(4-Hydroxy-3-Methoxyphenyl)-5-(1H-Imidazol-1-yl)pent-1-En-3-One], the inhibition at 10 µg/mL was 87.15 ± 0.46% and the “α-amylase inhibitory effect better than acarbose” value (versus acarbose) was “up to 2 fold”.
